We go through two molecules from patent US5124322A, “Dipeptide collagenase inhibitors” (Beecham Group p.l.c., priority 1988, dated 1992).

Read-outs that look alike come from different tables or passages of the source.

This assay deals with T1, human lung fibroblast collagenase (Homo sapiens, UniProt P03956).
T1 construct: from culture supernatants from the human lung fibroblast cell line, WI-38; endogenous in cells; host or cells: WI-38 human lung fibroblast cell line (culture supernatant)
T1 sequence (P03956 100-469): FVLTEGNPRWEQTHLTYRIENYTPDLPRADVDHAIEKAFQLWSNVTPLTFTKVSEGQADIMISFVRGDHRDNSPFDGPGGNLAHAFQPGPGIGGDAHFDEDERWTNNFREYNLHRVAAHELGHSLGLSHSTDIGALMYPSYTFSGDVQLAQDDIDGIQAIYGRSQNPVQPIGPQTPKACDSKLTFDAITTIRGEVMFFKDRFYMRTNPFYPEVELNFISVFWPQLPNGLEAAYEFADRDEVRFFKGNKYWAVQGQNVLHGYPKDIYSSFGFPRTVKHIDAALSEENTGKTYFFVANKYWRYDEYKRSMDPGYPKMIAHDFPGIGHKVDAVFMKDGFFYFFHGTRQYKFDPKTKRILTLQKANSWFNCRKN
As to the kind of experiment: Collagenase inhibitor assay, human lung fibroblast collagenase (14C-collagen fibril degradation). As to conditions: collagenase from WI-38 culture supernatants. The class given is biochemical. How it is done:
The test is performed essentially as in Cawston and Barrett, Anal. Biochem. 99, 340-345 (1979). Compounds for testing are dissolved in methanol and added to collagenase (purified from cultures of rabbit bone or from culture supernatants from the human lung fibroblast cell line, WI-38) in buffer. In order to ensure that thiol collagenase inhibitors remained unoxidised, β-mercaptoethanol may be incorporated in the methanol solvent and/or the diluent buffers. The minimal direct effect of β-mercaptoethanol on the degradation of collagen by human or rabbit collagenase is controlled for. After a 5-15 min pre-incubation at 37° C., the assay tubes are cooled to 4° C. and ^14 C-acetylated rat skin […] collagen is added. The assay tubes are incubated at 37° C. overnight. The ^14 C-collagen forms insoluble fibrils which are the substrate for the enzyme.
To terminate the assay, the assay tubes are spun at 12000 rpm for 15 min. Undigested ^14 C-collagen is pelleted, while digested ^14 C-collagen is found as soluble peptides in the supernatant. A sample of the supernatant is taken for liquid scintillation counting.
The activity of collagenase inhibitors (IC50 : 50% inhibitory concentration) is expressed as that concentration of compound that inhibits a known (standard) concentration of enzyme by 50%.

Setting [1] is: * = +mercaptoethanol, read-out: IC50, Inhibition of human lung fibroblast collagenase, +mercaptoethanol.
[2] abbreviates: without mercaptoethanol, read-out: IC50, Inhibition of human lung fibroblast collagenase.

“4-Chloro-2-mercapto-N-[2-(3-indolyl)-1-(S)-(methyl-aminocarbonyl)ethyl]-α-(2-methylpropyl)phenylpropanamide [Example 8]”: the IC50 under setting [1] was 190 nM and the IC50 under setting [2] is 1500 nM.
The corresponding values for `CNC(=O)[C@H](Cc1ccc(OC)cc1)NC(=O)C(Cc1ccc(Cl)cc1S)CC(C)C` (stereo partly drawn) [Example 5, 4-Chloro-2-mercapto-N-[2-(4-methoxyphenyl)-1-(S)-(methylaminocarbonyl)ethyl]-α-(2-methylpropyl)phenylpropanamide] are 250 nM and 1800 nM.
